Experiment [1] has as its target human TLR7 (Homo sapiens (Human), UniProt Q9NYK1). As to the kind of experiment: HEK293-Blue-hTLR-7 cells assay. The format is cell-based. Conditions: HEK293-Blue-hTLR7 cells, R848 stimulation, 20 hrs, SEAP reporter; read-out: HEK/hTLR7 IC50. In outline: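 HEK293-Blue cells stably expressing hTLR7 with NF-κB/AP-1-driven SEAP reporter, incubated 20 h at 37 °C with serially diluted compound (1% DMSO) plus R848 agonist (10 μL of 20 μM stock). Supernatant SEAP measured with QUANTI-Blue after 2 h at 37 °C, absorbance 620-655 nm; antagonism as reduced reporter.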

For experiment [2], the target named is human TLR9 (Homo sapiens (Human), UniProt Q9NR96). As to the kind of experiment: HEK293-Blue-hTLR-9 cells assay. The class given is cell-based. Conditions: HEK293-Blue-hTLR9 cells, ODN2006 stimulation, 20 hrs, SEAP reporter; read-out: HEK/hTLR9 IC50.
Sequence of human TLR9 (Q9NR96 26-1032): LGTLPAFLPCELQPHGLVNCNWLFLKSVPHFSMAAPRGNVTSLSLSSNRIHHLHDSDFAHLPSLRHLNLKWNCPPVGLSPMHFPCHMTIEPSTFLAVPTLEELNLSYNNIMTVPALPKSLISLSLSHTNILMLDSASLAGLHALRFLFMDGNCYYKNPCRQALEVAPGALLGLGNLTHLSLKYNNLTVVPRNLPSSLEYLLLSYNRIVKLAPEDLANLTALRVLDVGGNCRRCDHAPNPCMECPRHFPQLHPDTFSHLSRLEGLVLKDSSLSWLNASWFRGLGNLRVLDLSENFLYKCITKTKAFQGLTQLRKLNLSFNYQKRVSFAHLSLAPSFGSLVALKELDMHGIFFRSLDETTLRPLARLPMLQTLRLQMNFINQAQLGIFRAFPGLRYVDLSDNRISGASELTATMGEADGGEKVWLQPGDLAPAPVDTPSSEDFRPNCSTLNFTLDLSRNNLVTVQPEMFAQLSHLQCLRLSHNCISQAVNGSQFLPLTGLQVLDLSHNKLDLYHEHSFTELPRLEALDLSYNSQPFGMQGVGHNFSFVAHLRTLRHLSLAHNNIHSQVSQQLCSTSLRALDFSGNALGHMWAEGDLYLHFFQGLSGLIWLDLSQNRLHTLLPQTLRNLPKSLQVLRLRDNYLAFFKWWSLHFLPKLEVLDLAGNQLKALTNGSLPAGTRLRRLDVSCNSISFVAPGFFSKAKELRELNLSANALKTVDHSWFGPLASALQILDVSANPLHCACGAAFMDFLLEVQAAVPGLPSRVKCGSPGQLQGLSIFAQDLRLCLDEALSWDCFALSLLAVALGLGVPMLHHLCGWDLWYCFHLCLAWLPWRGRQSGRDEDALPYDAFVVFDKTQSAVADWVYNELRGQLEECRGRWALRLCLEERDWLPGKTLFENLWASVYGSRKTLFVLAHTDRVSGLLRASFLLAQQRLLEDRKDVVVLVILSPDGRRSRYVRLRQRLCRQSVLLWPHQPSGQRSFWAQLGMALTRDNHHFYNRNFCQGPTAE

Drawing on US12486273B2 (Hoffmann-La Roche Inc., priority 2019, dated 2025), this text covers IC50 for five molecules.

Sequence of human TLR7 (Q9NYK1 27-1049): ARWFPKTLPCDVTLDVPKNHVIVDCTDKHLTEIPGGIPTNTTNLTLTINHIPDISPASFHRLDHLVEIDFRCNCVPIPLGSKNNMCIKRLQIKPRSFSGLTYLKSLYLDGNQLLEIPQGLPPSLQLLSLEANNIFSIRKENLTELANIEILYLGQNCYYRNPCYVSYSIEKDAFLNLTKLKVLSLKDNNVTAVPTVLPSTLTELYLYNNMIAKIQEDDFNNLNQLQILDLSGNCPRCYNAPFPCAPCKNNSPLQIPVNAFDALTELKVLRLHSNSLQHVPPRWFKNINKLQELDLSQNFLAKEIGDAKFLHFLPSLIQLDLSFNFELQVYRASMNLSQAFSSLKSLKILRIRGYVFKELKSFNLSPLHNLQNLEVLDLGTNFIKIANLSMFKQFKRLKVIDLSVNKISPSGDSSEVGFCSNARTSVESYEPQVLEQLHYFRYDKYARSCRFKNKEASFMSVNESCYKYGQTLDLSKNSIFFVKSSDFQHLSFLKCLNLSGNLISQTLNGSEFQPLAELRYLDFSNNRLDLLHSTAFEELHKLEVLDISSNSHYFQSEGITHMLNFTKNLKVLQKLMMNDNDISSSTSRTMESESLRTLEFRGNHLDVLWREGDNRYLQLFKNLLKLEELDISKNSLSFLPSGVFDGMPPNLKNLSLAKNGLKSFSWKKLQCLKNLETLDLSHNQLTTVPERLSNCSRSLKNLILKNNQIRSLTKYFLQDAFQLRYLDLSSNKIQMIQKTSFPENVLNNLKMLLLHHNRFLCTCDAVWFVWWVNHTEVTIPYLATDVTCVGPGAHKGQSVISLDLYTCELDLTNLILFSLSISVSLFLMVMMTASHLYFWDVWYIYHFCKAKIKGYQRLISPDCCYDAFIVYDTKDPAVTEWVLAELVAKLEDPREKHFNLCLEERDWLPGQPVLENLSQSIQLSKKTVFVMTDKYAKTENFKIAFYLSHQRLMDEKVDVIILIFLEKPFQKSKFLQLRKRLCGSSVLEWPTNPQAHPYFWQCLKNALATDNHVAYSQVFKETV

Consider `C[C@@H]1CN(c2ccc(C#N)c3ncccc23)C[C@@H]2C[C@@H](Nc3ccc4c(n3)CNCC4)CN21` [Example 3, 5-[(4R,7R,8aS)-4-methyl-7-(5,6,7,8-tetrahydro-1,7-naphthyridin-2-ylamino)-3,4,6,7,8,8a-hexahydro-1H-pyrrolo[1,2-a]pyrazin-2-yl]quinoline-8-carbonitrile], for which the IC50 in experiment [1] amounted to 38.7 nM; in experiment [2], 114 nM.
`C[C@@H]1CN(c2ccc(C#N)c3ncccc23)C[C@@H]2C[C@@H](Nc3cc4c(cn3)CCNC4)CN21` [Example 2, 5-[(4R,7R,8aS)-4-methyl-7-(5,6,7,8-tetrahydro-2,6-naphthyridin-3-ylamino)-3,4,6,7,8,8a-hexahydro-1H-pyrrolo[1,2-a]pyrazin-2-yl]quinoline-8-carbonitrile]: the IC50 in experiment [1] was 40.5 nM; in experiment [2], 89.5 nM.
In the case of `[2H]c1ccc2c(N3C[C@@H]4C[C@H](N5CCNCC5)CN4[C@H](C)C3)ccc(C#N)c2n1` [Example 15, 5-[(4R,7S,8aS)-4-methyl-7-piperazin-1-yl-3,4,6,7,8,8a-hexahydro-1H-pyrrolo[1,2-a]pyrazin-2-yl]-2-deuterio-quinoline-8-carbonitrile], the IC50 was 12.9 nM in experiment [1] and 120 nM in experiment [2].
The corresponding values for `C[C@@H]1CN(c2ccc(C#N)c3ncccc23)C[C@@H]2C[C@@H](Nc3ccc4c(n3)CCNC4)CN21` [Example 1, 5-[(4R,7R,8aS)-4-methyl-7-(5,6,7,8-tetrahydro-1,6-naphthyridin-2-ylamino)-3,4,6,7,8,8a-hexahydro-1H-pyrrolo[1,2-a]pyrazin-2-yl]quinoline-8-carbonitrile] are 16.1 nM and 43.4 nM.
For `[2H]c1ccc2c(N3C[C@@H]4C[C@H](N5CCC(N(C)C)CC5)CN4[C@H](C)C3)ccc(C#N)c2n1` [Example 20, 5-[(4R,7S,8aS)-7-[4-(dimethylamino)-1-piperidyl]-4-methyl-3,4,6,7,8,8a-hexahydro-1H-pyrrolo[1,2-a]pyrazin-2-yl]-2-deuterio-quinoline-8-carbonitrile], the IC50 in experiment [1] stood at 18.9 nM; in experiment [2], 150 nM.
